Experimental data published in EP0683161A1, “Ester of 4-amino-5-chloro-2-methoxybenzoic acid, process for their preparation and pharmaceutical compositions containing them” (MIDY S.p.A., priority 1994, dated 1995).

Experiments:
récepteur 5-HT₃ = biological target: T1, récepteur 5-HT₃ (Rattus norvegicus, UniProt P35563); assay: in vitro binding to 5-HT3 sites of rat cerebral cortex, displacement of [3H] BRL 43694 (granisetron); conditions: rat cerebral cortex membranes, labelled ligand 0,5 nM
T1 construct: les sites de liaison 5-HT₃ présents dans le cortex cérébral du rat; from tissue; host or cells: rat cerebral cortex membranes
T1 sequence (P35563 24-483): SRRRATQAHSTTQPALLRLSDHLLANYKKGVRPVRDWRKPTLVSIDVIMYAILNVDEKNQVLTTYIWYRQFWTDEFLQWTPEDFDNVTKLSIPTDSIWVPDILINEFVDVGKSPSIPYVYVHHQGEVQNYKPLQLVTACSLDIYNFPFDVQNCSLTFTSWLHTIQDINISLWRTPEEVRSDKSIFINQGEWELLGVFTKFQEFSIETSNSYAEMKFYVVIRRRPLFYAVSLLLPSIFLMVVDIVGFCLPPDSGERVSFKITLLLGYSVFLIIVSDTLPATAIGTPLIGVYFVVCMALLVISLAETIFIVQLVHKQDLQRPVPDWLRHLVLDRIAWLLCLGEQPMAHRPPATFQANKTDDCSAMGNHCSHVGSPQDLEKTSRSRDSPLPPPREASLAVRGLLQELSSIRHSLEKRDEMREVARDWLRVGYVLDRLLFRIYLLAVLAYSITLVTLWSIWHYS
Procedure: Afin de tester l'affinité du composé de formule (I) relativement au récepteur 5-HT₃, on a effectué des essais de liaison in vitro en utilisant les sites de liaison 5-HT₃ présents dans le cortex cérébral du rat (G.J. Kilpatrick, B.J. Jones et M.B. Tyers, Nature, 1987; 330: 746-8) et comme ligand marqué le [³H] BRL 43694 (granisetron), un antagoniste des récepteurs 5-HT₃ puissant et spécifique, à la concentration de 0,5 nM.
La préparation des membranes et le test de liaison ont été effectués selon la méthode décrite par Nelson et Thomas (D.R. Nelson et D.R. Thomas, Biochem. Pharmacol., 1989; 38: 1693-5).
Les résultats ont été évalués avec des méthodes d'ajustement ("fitting") non linéaire "Accufit saturation", pour les études de saturation (H.A. Feldman, Analyt. Biochem., 1972; 48: 317-38) et "Accufit competition", pour les études de déplacement (H.A. Feldman, D. Rodbard et D. Levine, Analyt. Biochem., 1972; 45: 530-56).

récepteur 5-HT₄ [1] = biological target: T2, récepteur 5-HT₄ (Cavia porcellus, UniProt O70528); assay: 5-HT response of the electrically stimulated guinea pig ileum myenteric plexus (modified Craig and Clarke test); set-up: species or system cobayes; conditions: 30 min incubation, cumulative 5-HT curve 10⁻¹⁰ to 10⁻⁵M
T2 construct: On isole le plexus myentérique à partir de segments d'iléon de 3 cm environ; from tissue; host or cells: guinea pig ileum myenteric plexus (isolated organ bath)
T2 sequence (O70528 whole entry): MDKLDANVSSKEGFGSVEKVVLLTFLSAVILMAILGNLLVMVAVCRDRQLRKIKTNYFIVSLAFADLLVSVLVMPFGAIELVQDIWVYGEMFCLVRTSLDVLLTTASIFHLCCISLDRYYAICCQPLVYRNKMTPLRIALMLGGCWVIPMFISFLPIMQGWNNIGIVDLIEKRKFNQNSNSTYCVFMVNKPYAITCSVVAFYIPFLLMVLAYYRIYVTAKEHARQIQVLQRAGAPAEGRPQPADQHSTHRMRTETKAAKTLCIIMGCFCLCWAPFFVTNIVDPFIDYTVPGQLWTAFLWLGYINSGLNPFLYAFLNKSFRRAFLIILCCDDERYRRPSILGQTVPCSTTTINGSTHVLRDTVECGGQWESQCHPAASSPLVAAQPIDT
Source text: Dans le but d'évaluer l'activité vis-à-vis du récepteur 5-HT₄, on a soumis les composés de l'invention à l'essai décrit par D.A. Craig et D.E. Clarke. (J. Pharmacol. Exp. Ther., 1990, 252: 1378-86) en lui apportant quelques modifications.
Des cobayes albinos mâles - Charles River Italia - (poids moyen de 500 g) sont sacrifiés par décapitation. On isole le plexus myentérique à partir de segments d'iléon de 3 cm environ, prélevés à 10 cm de la jonction iléooeecale; on place le plexus dans un bain de 20 ml pour organes isolés, contenant une solution de Krebs et de l'acide ascorbique à raison de 1 mg/ml. On maintient la solution, aérée au carboxygène, à la température de 37°C. Le plexus, relié à un transducteur isotonique et soumis à une charge de 0,5 g, est stimulé électriquement de façon supramaximale (fréquence 0,2 Hz, durée […]) par une électrode coaxiale au platine. La préparation est traitée avec de la phénoxybenzamine 10⁻⁷M pendant 30 minutes et, ensuite, lavée plusieurs fois. On réduit le voltage jusqu'à obtenir un effet stimulant de 50% par rapport au maximum et le plexus est ensuite stimulé par la sérotonine à raison de 3·10⁻⁷M. Après lavage et stabilisation, la préparation est prête pour l'essai des composés à activité 5-HT₄. Trois courbes cumulatives de 5-HT sont construites toutes les 60 minutes. […]

récepteurs 5-HT₄ = récepteurs 5-HT₄ (Rattus norvegicus, UniProt Q62758); assay: 5-HT relaxation of carbachol-contracted rat oesophagus tunica muscularis mucosae (Baxter and Clarke method); conditions: rat oesophagus tunica muscularis mucosae contracted by carbachol; result in words only
Chain of récepteurs 5-HT₄ (Q62758 whole entry): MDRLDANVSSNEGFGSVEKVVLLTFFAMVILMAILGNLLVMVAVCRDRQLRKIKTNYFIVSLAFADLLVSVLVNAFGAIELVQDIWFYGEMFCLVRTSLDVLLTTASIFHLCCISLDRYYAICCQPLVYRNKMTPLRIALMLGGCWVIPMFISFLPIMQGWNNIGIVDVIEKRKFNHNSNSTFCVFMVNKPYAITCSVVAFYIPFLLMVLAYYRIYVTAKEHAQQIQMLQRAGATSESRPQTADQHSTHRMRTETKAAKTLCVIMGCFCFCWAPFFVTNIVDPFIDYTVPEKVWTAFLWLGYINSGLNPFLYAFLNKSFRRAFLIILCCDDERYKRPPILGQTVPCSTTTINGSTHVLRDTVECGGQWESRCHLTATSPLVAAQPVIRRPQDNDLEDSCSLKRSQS
Source text: De plus, toujours pour l'évaluation de l'activité 5-HT₄, on a soumis le composé de formule (I) à un essai sur la tunica muscolaris mucosae de l'oesophage de rat contracté par du carbacol. […] Des rats mâles Crl:CD(SD)BR (Charles River Italia) d'un poids moyen de 250 g sont sacrifiés par dislocation cervicale. Un segment d'oesophage d'environ 2 cm est prélevé au niveau intratoraxique à proximité du diaphragme. La tunica muscolaris mucosae est ensuite isolée et suspendue dans un bain pour organes isolés de 20 ml contenant une solution de Krebs en présence d'hydrocortisone (3·10⁻⁷ M) à 37°C aérée avec 95% O₂ et 5% CO₂. Le tissu est relié à un transducteur isotonique et soumis à une charge de 1 g. La préparation est incubée avec de la pargiline (10⁻⁴ M) pendant 30 minutes et lavée plusieurs fois. Après 60 minutes environ, on contracte le tissu avec des doses cumulatives de carbacol (10⁻⁶, 2·10⁻⁶, 3·10⁻⁶, 4·10⁻⁶ M); de cette manière, on obtient un tonus du tissu stable dans le temps. La 5-HT (10⁻¹⁰ et 10⁻⁶ M), qui est ajoutée cumulativement, relaxe l'oesophage grâce à l'activation des récepteurs 5-HT₄. Trois courbes de carbacol sont construites par préparation toutes les 90 minutes. Après chaque courbe, on procède au moins à 4 lavages. Aussi bien la contraction provoquée par le carbacol que les effets sur celle-ci sont identiques et peuvent être reproduits. […]

récepteur 5-HT₄ [2] = biological target: récepteur 5-HT₄ (Homo sapiens, UniProt Q13639); assay: activity of the separated cis and trans isomers at the 5-HT4 receptor (test not specified); conditions: cis and trans isomers evaluated separately
Chain of récepteur 5-HT₄ (Homo sapiens, UniProt Q13639) (Q13639 whole entry): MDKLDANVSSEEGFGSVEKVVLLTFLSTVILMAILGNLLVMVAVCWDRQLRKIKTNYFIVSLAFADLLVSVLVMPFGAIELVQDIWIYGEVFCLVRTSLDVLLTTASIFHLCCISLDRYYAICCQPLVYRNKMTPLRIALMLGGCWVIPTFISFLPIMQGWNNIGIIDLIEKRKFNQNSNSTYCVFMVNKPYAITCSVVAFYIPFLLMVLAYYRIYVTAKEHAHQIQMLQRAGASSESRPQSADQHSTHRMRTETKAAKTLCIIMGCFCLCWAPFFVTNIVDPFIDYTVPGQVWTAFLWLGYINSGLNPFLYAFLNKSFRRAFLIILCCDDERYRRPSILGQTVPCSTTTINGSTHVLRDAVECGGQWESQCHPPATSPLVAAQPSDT

| Compound | déplacement du [³H] BRL 43694 (récepteur 5-HT₃) | IC₅₀, dose qui réduit de 50% la réponse de la 5-HT (récepteur 5-HT₄ [1]) | pA₂ (antagonism of 5-HT relaxation) (récepteurs 5-HT₄) | activité vis-à-vis du récepteur 5-HT₄ (récepteur 5-HT₄ [2]) |
| --- | --- | --- | --- | --- |
| COc1cc(N)c(Cl)cc1C(=O)OCCN1CC(C)CC(C)C1 (stereo not shown) [composé de formule (I), ester 3,5-diméthylpipéridinoéthyliquede l'acide 4-amino-5-chloro-2-méthoxybenzoïque] | inactif | quelques nanomoles | très efficace | – |
| COc1cc(N)c(Cl)cc1C(=O)OCCN1CC(C)CC(C)C1 (stereo not drawn) [isomère cis, isomère cis de l'ester 3,5-diméthylpipéridinoéthyliquede l'acide 4-amino-5-chloro-2-méthoxybenzoïque] | – | – | – | le plus actif |
